According to ChEMBL document CHEMBL2203248, “Identification of novel series of pyrazole and indole-urea based DFG-out PYK2 inhibitors” (Bioorg Med Chem Lett, 2012):

Experiments:
[1] = Clearance in human liver microsomes at 1 uM after 40 mins by HPLC-MS analysis; type: ADME, Microsome; settings: read-out: CLH
[2] = Lipophilicity, log D of the compound at pH 7.4; type: physicochemical; settings: buffer
Rattus norvegicus [3] = assay: fCmax in Wistar Han rat at 100 mg/kg, po; type: ADME, organism-based; set-up: dose 100 mg/kg, route oral; settings: in vivo
[4] = Cmax in Wistar Han rat at 100 mg/kg, po; type: ADME, organism-based; set-up: dose 100 mg/kg, route oral; settings: in vivo
[5] = Terminal elimination half life in Wistar Han rat at 100 mg/kg, po; type: ADME, organism-based; set-up: dose 100 mg/kg, route oral; settings: in vivo, read-out: beta t1/2 (converted)
[6] = Oral bioavailability in Wistar Han rat at 30 mg/kg; type: ADME, organism-based; settings: in vivo
Rattus norvegicus [7] = assay: fCmax in Wistar Han rat at 30 mg/kg, po; type: ADME, organism-based; set-up: dose 30 mg/kg, route oral; settings: in vivo
[8] = Cmax in Wistar Han rat at 30 mg/kg, po; type: ADME, organism-based; set-up: dose 30 mg/kg, route oral; settings: in vivo
[9] = Volume of distribution at steady state in Wistar Han rat at 1 mg/kg, iv; type: ADME, organism-based; set-up: dose 1 mg/kg, route intravenous; settings: in vivo, read-out: Vdss
[10] = Plasma clearance in Wistar Han rat at 1 mg/kg, iv; type: ADME, organism-based; set-up: dose 1 mg/kg, route intravenous
[11] = Terminal elimination half life in Wistar Han rat at 1 mg/kg, iv; type: ADME, organism-based; set-up: dose 1 mg/kg, route intravenous; settings: in vivo, read-out: beta t1/2 (converted)

| CLint scaled at 1 µM [1] | logD [2] | Compound | other results |
| --- | --- | --- | --- |
| 53 mL/min/kg | – | Cc1ccc(-n2nc(C(C)(C)C)cc2NC(=O)Nc2cccc3cc(C(=O)N4CCC5(CCNC5)C4)[nH]c23)cc1 (stereo not given) | – |
| 92 mL/min/kg | – | Cc1ccc(-n2nc(C(C)(C)C)cc2NC(=O)Nc2cc(-c3ccc4c(c3)OCCO4)[nH]n2)cc1 | – |
| 28 mL/min/kg | 4.9 | CNC(=O)c1cc2cccc(NC(=O)Nc3cc(C(C)(C)C)nn3-c3ccc(C)cc3)c2[nH]1 | – |
| 44 mL/min/kg | 4.5 | Cc1ccc(-n2nc(C(C)(C)C)cc2NC(=O)Nc2cc(-c3ccc4nccn4c3)[nH]n2)cc1 | – |
| 109 mL/min/kg | – | Cc1ccc(-n2nc(C(C)(C)C)cc2NC(=O)Nc2cc(COc3cccnc3)n[nH]2)cc1 | – |
| 77 mL/min/kg | – | Cc1ccc(-n2nc(C(C)(C)C)cc2NC(=O)Nc2cccc3cc(C(=O)N4CCCC4)[nH]c23)cc1 | – |
| 149 mL/min/kg | 4.7 | Cc1ccc(-n2nc(C(C)(C)C)cc2NC(=O)Nc2cc(-c3ccc4nccnc4c3)[nH]n2)cc1 | fCmax (Rattus norvegicus [3]): 1.1 nM; Cmax [4]: 0.068 µM; half-life [5]: 7.3 h |
| 20 mL/min/kg | 3.8 | Cc1ccc(-n2nc(C(C)(C)C)cc2NC(=O)Nc2cc(-c3ccc(=O)n(C)c3)n[nH]2)cc1 | – |
| 55 mL/min/kg | 5.2 | Cc1ccc(-n2nc(C(C)(C)C)cc2NC(=O)Nc2cc(-c3ccc4ncccc4c3)n[nH]2)cc1 | bioavailability [6]: 47%; fCmax (Rattus norvegicus [7]): 184 nM; Cmax [8]: 61.3 µM; Vd [9]: 0.15 L/kg; clearance [10]: 2 mL/min/kg; half-life [11]: 2 h |
| 129 mL/min/kg | – | COc1ccc(-c2cc(NC(=O)Nc3cc(C(C)(C)C)nn3-c3ccc(C)cc3)n[nH]2)c(C)c1 | – |
| 93 mL/min/kg | 5.3 | Cc1ccc(-n2nc(C(C)(C)C)cc2NC(=O)Nc2cccc3cc(C(=O)NC(C)C)[nH]c23)cc1 | – |
| 31 mL/min/kg | – | CCOCCCNC(=O)c1cc2cccc(NC(=O)Nc3cc(C(C)(C)C)nn3-c3ccc(C)cc3)c2[nH]1 | bioavailability [6]: 1.6%; fCmax (Rattus norvegicus [7]): 42 nM; Cmax [8]: 0.621 µM; Vd [9]: 0.7 L/kg; clearance [10]: 4.8 mL/min/kg; half-life [11]: 4.1 h |
| 16 mL/min/kg | – | Cc1ccc(-n2nc(C(C)(C)C)cc2NC(=O)Nc2cc(-c3ccc(O)nn3)[nH]n2)cc1 | – |
| 48 mL/min/kg | 4.9 | COc1ccc(-c2cc(NC(=O)Nc3cc(C(C)(C)C)nn3-c3ccc(C)cc3)n[nH]2)cn1 | – |
| 53 mL/min/kg | – | Cc1ccc(-n2nc(C(C)(C)C)cc2NC(=O)Nc2cccc3cc(C(=O)N(C)CCc4ccccn4)[nH]c23)cc1 | bioavailability [6]: 69%; fCmax (Rattus norvegicus [7]): 25 nM; Cmax [8]: 38.3 µM; Vd [9]: 0.4 L/kg; clearance [10]: 3.2 mL/min/kg; half-life [11]: 2.2 h |
| 11.9 mL/min/kg | 3.7 | Cc1ccc(-n2nc(C(C)(C)C)cc2NC(=O)Nc2cc(-c3ccc(=O)[nH]c3)n[nH]2)cc1 | – |
